The source of these data is ChEMBL document CHEMBL4024791, “Identification of Morpholino-2H-pyrido[3,2-b][1,4]oxazin-3(4H)-ones as Nonsteroidal Mineralocorticoid Antagonists” (J Med Chem, 2018).

The target of series [1] is T1, Androgen receptor (Homo sapiens, UniProt P10275).
T1 sequence (P10275 whole entry): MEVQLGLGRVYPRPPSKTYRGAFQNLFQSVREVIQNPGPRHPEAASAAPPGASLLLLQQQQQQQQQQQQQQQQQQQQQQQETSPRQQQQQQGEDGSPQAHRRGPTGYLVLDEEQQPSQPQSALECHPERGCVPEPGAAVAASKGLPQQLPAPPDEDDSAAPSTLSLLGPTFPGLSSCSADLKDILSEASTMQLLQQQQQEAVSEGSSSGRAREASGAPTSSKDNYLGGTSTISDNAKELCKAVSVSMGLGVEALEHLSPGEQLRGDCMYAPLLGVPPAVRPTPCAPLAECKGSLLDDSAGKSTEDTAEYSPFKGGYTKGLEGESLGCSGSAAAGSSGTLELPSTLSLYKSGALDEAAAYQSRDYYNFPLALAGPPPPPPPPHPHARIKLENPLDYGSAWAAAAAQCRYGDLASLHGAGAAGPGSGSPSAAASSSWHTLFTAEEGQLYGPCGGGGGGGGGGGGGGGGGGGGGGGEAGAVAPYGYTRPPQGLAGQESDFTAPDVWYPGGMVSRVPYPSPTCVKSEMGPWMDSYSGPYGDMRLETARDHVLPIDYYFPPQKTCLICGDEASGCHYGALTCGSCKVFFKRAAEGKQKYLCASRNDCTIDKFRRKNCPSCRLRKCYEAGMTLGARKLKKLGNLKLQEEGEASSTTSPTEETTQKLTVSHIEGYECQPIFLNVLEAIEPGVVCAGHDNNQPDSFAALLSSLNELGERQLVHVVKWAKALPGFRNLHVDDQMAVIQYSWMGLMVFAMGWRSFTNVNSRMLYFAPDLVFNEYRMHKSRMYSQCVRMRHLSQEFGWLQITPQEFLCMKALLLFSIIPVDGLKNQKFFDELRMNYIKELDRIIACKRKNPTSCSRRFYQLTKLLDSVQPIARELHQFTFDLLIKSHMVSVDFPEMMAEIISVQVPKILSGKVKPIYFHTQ
Put plainly: Antagonist activity at human GAL4-DBD fused AR ligand binding domain transfected in human Huh7 cells co-expressing GAL4-RE-Luc assessed as reduction in dihydrotestosterone-induced luciferase activity after 16 hrs by luciferase reporter gene assay. It counts as cell-based. In general terms: Reporter assays use an easily measured gene product as a stand-in for the process of interest.

For series [2], the target named is CYP2C9 (Homo sapiens, UniProt P11712). Put plainly: Inhibition of CYP2C9 (unknown origin) at 3 uM. It counts as ADME.
CYP2C9, sequence (P11712 whole entry): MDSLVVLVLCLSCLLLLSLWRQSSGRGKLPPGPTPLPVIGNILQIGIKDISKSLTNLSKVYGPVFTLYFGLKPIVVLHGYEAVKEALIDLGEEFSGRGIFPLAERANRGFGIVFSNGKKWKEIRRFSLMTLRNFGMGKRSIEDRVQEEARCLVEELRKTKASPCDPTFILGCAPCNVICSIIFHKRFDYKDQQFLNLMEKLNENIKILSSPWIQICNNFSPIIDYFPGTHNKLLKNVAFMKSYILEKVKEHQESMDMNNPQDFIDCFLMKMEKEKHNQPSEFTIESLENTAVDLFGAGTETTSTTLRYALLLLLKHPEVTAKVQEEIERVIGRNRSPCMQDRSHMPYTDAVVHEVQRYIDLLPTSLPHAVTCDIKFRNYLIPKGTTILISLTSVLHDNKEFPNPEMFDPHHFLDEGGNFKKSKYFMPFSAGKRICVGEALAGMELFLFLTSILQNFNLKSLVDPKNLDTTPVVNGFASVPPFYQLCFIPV
Series [3] is described as follows: Distribution coefficient, log D of the compound. It counts as physicochemical. Particulars: octanol/water.
The target of series [4] is T2, CYP1A2 (Homo sapiens, UniProt P05177).
T2 sequence (P05177 whole entry): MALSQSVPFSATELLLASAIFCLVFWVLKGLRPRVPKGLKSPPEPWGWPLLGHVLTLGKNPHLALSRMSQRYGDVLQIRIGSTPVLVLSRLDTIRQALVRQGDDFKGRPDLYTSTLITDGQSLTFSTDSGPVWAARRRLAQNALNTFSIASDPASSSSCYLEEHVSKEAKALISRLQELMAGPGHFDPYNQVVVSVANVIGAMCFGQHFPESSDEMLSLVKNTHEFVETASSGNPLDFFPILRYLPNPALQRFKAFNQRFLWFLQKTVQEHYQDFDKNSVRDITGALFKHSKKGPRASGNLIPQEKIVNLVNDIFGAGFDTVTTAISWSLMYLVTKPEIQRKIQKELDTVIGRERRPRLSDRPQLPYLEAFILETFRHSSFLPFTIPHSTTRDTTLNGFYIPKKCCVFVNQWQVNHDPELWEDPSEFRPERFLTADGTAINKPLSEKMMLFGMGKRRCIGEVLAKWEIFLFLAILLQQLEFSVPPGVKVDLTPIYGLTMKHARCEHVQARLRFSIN
The experiment in a line: Inhibition of CYP1A2 (unknown origin) at 3 uM. It counts as ADME.

In series [5] the target is T3, Progesterone receptor (Homo sapiens, UniProt P06401).
T3 sequence (P06401 whole entry): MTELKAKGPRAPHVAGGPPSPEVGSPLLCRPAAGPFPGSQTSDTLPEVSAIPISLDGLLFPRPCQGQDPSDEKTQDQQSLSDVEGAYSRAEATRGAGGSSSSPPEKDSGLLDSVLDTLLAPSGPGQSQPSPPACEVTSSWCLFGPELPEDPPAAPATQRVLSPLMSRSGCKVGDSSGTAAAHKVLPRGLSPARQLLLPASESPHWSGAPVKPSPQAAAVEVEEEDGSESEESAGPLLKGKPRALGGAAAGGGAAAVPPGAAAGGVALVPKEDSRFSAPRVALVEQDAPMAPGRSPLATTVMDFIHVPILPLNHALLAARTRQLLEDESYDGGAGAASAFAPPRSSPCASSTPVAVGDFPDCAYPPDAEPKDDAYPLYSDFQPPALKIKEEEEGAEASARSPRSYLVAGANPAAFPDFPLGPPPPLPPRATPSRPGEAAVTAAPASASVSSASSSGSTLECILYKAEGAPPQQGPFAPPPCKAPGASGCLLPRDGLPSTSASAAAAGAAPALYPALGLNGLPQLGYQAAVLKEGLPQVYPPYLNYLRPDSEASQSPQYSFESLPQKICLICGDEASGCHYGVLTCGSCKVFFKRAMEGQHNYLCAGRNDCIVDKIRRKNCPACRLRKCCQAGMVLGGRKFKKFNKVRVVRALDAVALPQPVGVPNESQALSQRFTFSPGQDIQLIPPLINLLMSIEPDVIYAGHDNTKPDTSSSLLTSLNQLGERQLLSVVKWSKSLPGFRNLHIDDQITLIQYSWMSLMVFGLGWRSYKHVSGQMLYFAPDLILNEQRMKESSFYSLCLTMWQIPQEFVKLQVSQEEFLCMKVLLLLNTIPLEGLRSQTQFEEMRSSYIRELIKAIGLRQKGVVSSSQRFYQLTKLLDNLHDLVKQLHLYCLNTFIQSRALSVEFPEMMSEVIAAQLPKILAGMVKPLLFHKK
Put plainly: Antagonist activity at PR (unknown origin) by Gal4-based cellular assay.

In series [6] the target is CYP2D6 (Homo sapiens, UniProt P10635). Put plainly: Inhibition of CYP2D6 (unknown origin) at 3 uM. It counts as ADME.
CYP2D6, sequence (P10635 whole entry): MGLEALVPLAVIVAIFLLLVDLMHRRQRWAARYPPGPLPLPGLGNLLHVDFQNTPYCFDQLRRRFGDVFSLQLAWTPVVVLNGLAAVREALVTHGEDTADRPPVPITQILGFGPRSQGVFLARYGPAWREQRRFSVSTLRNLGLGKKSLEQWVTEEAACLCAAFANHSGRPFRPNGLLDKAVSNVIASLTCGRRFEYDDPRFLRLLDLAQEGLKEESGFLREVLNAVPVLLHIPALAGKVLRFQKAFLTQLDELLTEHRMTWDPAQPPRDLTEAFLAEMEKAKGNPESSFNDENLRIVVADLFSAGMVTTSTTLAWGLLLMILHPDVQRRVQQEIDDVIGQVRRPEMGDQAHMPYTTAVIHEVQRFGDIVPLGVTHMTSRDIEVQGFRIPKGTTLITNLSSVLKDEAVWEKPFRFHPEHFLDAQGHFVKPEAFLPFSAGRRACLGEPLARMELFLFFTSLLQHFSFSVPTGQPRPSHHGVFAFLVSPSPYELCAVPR
In series [7] the target is CYP3A4 (Homo sapiens, UniProt P08684). The experiment in a line: Inhibition of CYP3A4 (unknown origin) at 3 uM. It counts as ADME.
CYP3A4, sequence (P08684 whole entry): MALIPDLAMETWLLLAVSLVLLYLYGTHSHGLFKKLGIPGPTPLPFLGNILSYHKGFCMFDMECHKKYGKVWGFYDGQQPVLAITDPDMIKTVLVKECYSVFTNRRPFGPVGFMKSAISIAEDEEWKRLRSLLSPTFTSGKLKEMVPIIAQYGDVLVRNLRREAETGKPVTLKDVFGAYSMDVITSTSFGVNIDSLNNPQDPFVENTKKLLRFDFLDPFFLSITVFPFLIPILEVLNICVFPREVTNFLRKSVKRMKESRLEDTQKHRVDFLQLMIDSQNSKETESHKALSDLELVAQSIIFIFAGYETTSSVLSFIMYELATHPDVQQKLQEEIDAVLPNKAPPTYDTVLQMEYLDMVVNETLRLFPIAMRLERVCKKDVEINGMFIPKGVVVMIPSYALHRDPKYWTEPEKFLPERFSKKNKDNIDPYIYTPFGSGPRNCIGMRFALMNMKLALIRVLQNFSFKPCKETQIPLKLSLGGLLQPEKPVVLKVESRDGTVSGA

Structures are written as SMILES.

One may read the IC50 as the concentration that inhibits the measured activity by half. The inhibition is the share of the control response that was lost under treatment. Lower therefore signals a response near the control. In general, logD refers to lipophilicity at a set pH, counting ionised and neutral species. For the molecule `O=C1COc2ccc(N3CCOC[C@H]3c3ccccc3)cc2N1`, the IC50 in series [1] and in series [5] was > 10 µM each time. In addition, the inhibition at 3 µM in series [2], in series [4], in series [6] and in series [7] was < 10% throughout. Besides, the logD in series [3] came out at 2.7.
As to `C[C@@H]1CN(c2ccc3c(n2)NC(=O)CO3)[C@H](c2ccccc2)CO1`, the IC50 in series [1] and in series [5] was > 10 µM each time. The inhibition at 3 µM in series [2], in series [4], in series [6] and in series [7] was < 20% each time. For the same molecule, the logD in series [3] amounted to 2.8.
